According to patent US8916567B2, “Certain crystalline hydrates, pharmaceutical compositions thereof and methods for preparation and use thereof” (Universal Technology Alliance, Inc., priority 2009, dated 2014):

Legend:
[1] = Solubility in different solvents according to Chinese Pharmacopeia (2005 edition); assay type: physicochemical; settings: for Result: at the given solute:solvent ratio
Experimental: The solubility of the (S)—[N-3-(3′-fluoro-4′-(4″-phenylpiperazinyl))phenyl-2-oxo-5-oxazolelidinyl]methylacetamide hydrates was tested with different solvents, and the test results are shown in Tables 15-19. The solubility was measured according to Chinese Pharmacopeia (2005 edition).

S. epidermidis MSSE = test: Minimum inhibitory concentration (MIC) in vitro, agar dilution method; assay type: cell-based; settings: hydrate
Summary of the method: (§1)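 Agar dilution MIC per CLSI/NCCLS method against clinical isolates collected in Sichuan and Beijing, 2007-2008. Compounds dissolved in DMSO, diluted in sterile water; vancomycin and linezolid as controls. Per-strain MICs reported alongside MIC50, MIC90 and MIC range.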

[2] = test system: Staphylococcus aureus MRSA; test: as above; assay type: cell-based; settings: hydrate
Summary of the method: as §1

S. epidermidis MRSE = test: as above; assay type: cell-based; settings: hydrate
Summary of the method: as §1

[3] = test system: Staphylococcus aureus MSSA; test: as above; assay type: cell-based; settings: hydrate
Summary of the method: as §1

E. feacalis = test: as above; assay type: cell-based; settings: hydrate
Summary of the method: as §1

E. feacium = test: as above; assay type: cell-based; settings: hydrate
Summary of the method: as §1

Staphylococcus aureus = test: Minimum inhibitory concentration (MIC) in vitro, agar dilution method, quality control strain; assay type: cell-based; settings: strain S. AT C C25923 (Table 7 No. 1); hydrate
Summary of the method: as §1

[4] = S. ep MSSE (10 strains), clinically isolated
[5] = S. MRSA (10 strains), clinically isolated
[6] = S. ep MRSE (10 strains), clinically isolated
[7] = S. MSSA (11 strains), clinically isolated
[8] = E. feacalis (5 strains), clinically isolated
[9] = E. feacium (5 strains), clinically isolated

For `CC(=O)NC[C@H]1CN(c2ccc(N3CCN(c4ccccc4)CC3)c(F)c2)C(=O)O1` [⅖ hydrate, (S)—[N-3-(3′-fluoro-4′-(4″-phenylpiperazinyl))phenyl-2-oxo-5-oxazolidinyl]methyl acetamide 2/5 hydrate], the “Solubility compared with the anhydride” value ([1]; different solvents) was “sometimes more soluble than the anhydride”, the Result ([1]; solvent 0.1N Hydrochloric acid) was “Dissolved” and the Result ([1]; solvent 0.1N Sodium hydroxide) was “Insoluble”. For the same molecule, the Result ([1]; solvent Acetonitrile) was “Dissolved”, the Result ([1]; solvent Ethanol) was “Dissolved” and the Result ([1]; solvent Methanol) was “Dissolved”. For the same molecule, the Result ([1]; solvent Water, hydrate) was “Dissolved”, the MIC50 (S. epidermidis MSSE; [4]) was 0.5 µg/mL and the MIC90 (S. epidermidis MSSE; [4]) was 0.5 µg/mL. It also gave an MICrange (S. epidermidis MSSE; [4]) of 0.125 to 0.5 µg/mL, an MIC (S. epidermidis MSSE; strain S. ep MSSE87 (Table 7 No. 23)) of 0.125 µg/mL and an MIC (S. epidermidis MSSE; strain S. ep MSSE88 (Table 8 No. 5)) of 0.5 µg/mL. For the same molecule, the MIC (S. epidermidis MSSE; strain S. ep MSSE113 (Table 7 No. 24)) was 0.5 µg/mL, the MIC (S. epidermidis MSSE; strain S. ep MSSE116 (Table 7 No. 25)) was 0.5 µg/mL and the MIC (S. epidermidis MSSE; strain S. ep MSSE118 (Table 8 No. 2)) was 0.5 µg/mL. For the same molecule, the MIC (S. epidermidis MSSE; strain S. ep MSSE119 (Table 7 No. 27)) was 0.125 µg/mL, the MIC (S. epidermidis MSSE; strain S. ep MSSE137 (Table 8 No. 4)) was 0.5 µg/mL and the MIC (S. epidermidis MSSE; strain S. ep MSSE140 (Table 8 No. 3)) was 0.5 µg/mL. It also gave an MIC (S. epidermidis MSSE; strain S. ep MSSE142 (Table 7 No. 26)) of 0.25 µg/mL, an MIC (S. epidermidis MSSE; strain S. ep MSSE153 (Table 8 No. 1)) of 0.5 µg/mL and an MIC50 [2, 5] of 1 µg/mL. For the same molecule, the MIC90 [2, 5] was 0.5 µg/mL, the MICrange [2, 5] was 0.25 to 0.5 µg/mL and the MIC ([2]; strain S. MRSA 29 (Table 7 No. 15)) was 0.5 µg/mL. The MIC ([2]; strain S. MRSA 101 (Table 7 No. 14)) was 0.5 µg/mL, the MIC ([2]; strain S. MRSA 201 (Table 7 No. 13)) was 0.5 µg/mL and the MIC ([2]; strain S. MRSA B27 (Table 7 No. 21)) was 0.5 µg/mL. The MIC ([2]; strain S. MRSA B105 (Table 7 No. 17)) was 0.5 µg/mL, the MIC ([2]; strain S. MRSA B143 (Table 7 No. 19)) was 0.5 µg/mL and the MIC ([2]; strain S. MRSA B151 (Table 7 No. 20)) was 0.25 µg/mL. The MIC ([2]; strain S. MRSA B164 (Table 7 No. 16)) was 0.5 µg/mL, the MIC ([2]; strain S. MRSA B199 (Table 7 No. 22)) was 0.5 µg/mL and the MIC ([2]; strain S. MRSA B617 (Table 7 No. 18)) was 0.5 µg/mL. The MIC50 (S. epidermidis MRSE; [6]) was 0.5 µg/mL, the MIC90 (S. epidermidis MRSE; [6]) was 0.5 µg/mL and the MICrange (S. epidermidis MRSE; [6]) was 0.125 to 0.5 µg/mL. For the same molecule, the MIC (S. epidermidis MRSE; strain S. ep MRSE4 (Table 8 No. 9)) was 0.5 µg/mL, the MIC (S. epidermidis MRSE; strain S. ep MRSE20 (Table 8 No. 6)) was 0.5 µg/mL and the MIC (S. epidermidis MRSE; strain S. ep MRSE87 (Table 8 No. 13)) was 0.5 µg/mL. It also gave an MIC (S. epidermidis MRSE; strain S. ep MRSE90 (Table 8 No. 10)) of 0.5 µg/mL, an MIC (S. epidermidis MRSE; strain S. ep MRSE101 (Table 8 No. 7)) of 0.125 µg/mL and an MIC (S. epidermidis MRSE; strain S. ep MRSE105 (Table 8 No. 11)) of 0.5 µg/mL. For the same molecule, the MIC (S. epidermidis MRSE; strain S. ep MRSE140 (Table 8 No. 14)) was 0.5 µg/mL, the MIC (S. epidermidis MRSE; strain S. ep MRSE142 (Table 8 No. 12)) was 0.5 µg/mL and the MIC (S. epidermidis MRSE; strain S. ep MRSE210 (Table 8 No. 15)) was 0.5 µg/mL. It also gave an MIC (S. epidermidis MRSE; strain S. ep MRSE211 (Table 8 No. 8)) of 0.5 µg/mL, an MIC50 [3, 7] of 0.5 µg/mL and an MIC90 [3, 7] of 0.5 µg/mL. The MICrange [3, 7] was 0.5 to 1 µg/mL, the MIC ([3]; strain S. MSSA 123 (Table 7 No. 3)) was 0.5 µg/mL and the MIC ([3]; strain S. MSSA 187 (Table 7 No. 7)) was 0.5 µg/mL. It also gave an MIC ([3]; strain S. MSSA 195 (Table 7 No. 6)) of 1 µg/mL, an MIC ([3]; strain S. MSSA 195 (Table 7 No. 12)) of 0.5 µg/mL and an MIC ([3]; strain S. MSSA 201 (Table 7 No. 11)) of 0.5 µg/mL. The MIC ([3]; strain S. MSSA 232 (Table 7 No. 2)) was 0.5 µg/mL, the MIC ([3]; strain S. MSSA 275 (Table 7 No. 10)) was 0.5 µg/mL and the MIC ([3]; strain S. MSSA 466 (Table 7 No. 8)) was 0.5 µg/mL. The MIC ([3]; strain S. MSSA 519 (Table 7 No. 9)) was 0.5 µg/mL, the MIC ([3]; strain S. MSSA 520 (Table 7 No. 4)) was 0.5 µg/mL and the MIC ([3]; strain S. MSSA 580 (Table 7 No. 5)) was 0.5 µg/mL. It also gave an MIC50 (E. feacalis; [8]) of 0.5 µg/mL, an MIC90 (E. feacalis; [8]) of 0.5 µg/mL and an MICrange (E. feacalis; [8]) of 0.125 to 0.5 µg/mL. It also gave an MIC (E. feacalis; strain Efa 116 (Table 8 No. 16)) of 0.5 µg/mL, an MIC (E. feacalis; strain Efa 907 (Table 8 No. 19)) of 0.5 µg/mL and an MIC (E. feacalis; strain Efa 3006 (Table 8 No. 18)) of 0.25 µg/mL. For the same molecule, the MIC (E. feacalis; strain Efa 33748 (Table 8 No. 17)) was 0.5 µg/mL, the MIC50 (E. feacium; [9]) was 1 µg/mL and the MIC90 (E. feacium; [9]) was 1 µg/mL. It also gave an MICrange (E. feacium; [9]) of 0.5 to 1 µg/mL, an MIC (E. feacium; strain Efm 98 (Table 8 No. 21)) of 0.5 µg/mL and an MIC (E. feacium; strain Efm 171 (Table 8 No. 25)) of 0.5 µg/mL. It also gave an MIC (E. feacium; strain Efm 197 (Table 8 No. 22)) of 1 µg/mL, an MIC (E. feacium; strain Efm N3 (Table 8 No. 23)) of 1 µg/mL and an MIC (E. feacium; strain Efm N4 (Table 8 No. 24)) of 1 µg/mL. For the same molecule, the MIC (Staphylococcus aureus) was 0.5 µg/mL.
